# Assay results taken from US6379696B1, “Therapeutic preparation for the transdermal administration of active substances” (priority 1995, dated 2002).
# What was measured:
# [1] = Permeation rate of morphine base through excised guinea pig skin with added LOVASTATIN; conditions: LOVASTATIN 2%-wt. added; after 24 h; released in 0.9% salt solution, T=37° C., n=3
# [2] = topical application; cited from earlier work
compound,measurement,setting,value
CC[C@H](C)C(=O)O[C@H]1C[C@@H](C)C=C2C=C[C@H](C)[C@H](CC[C@@H]3C[C@@H](O)CC(=O)O3)[C@H]21 [LOVASTATIN],permeation rate of morphine base,[1],double
same,DNA-synthesis in the epidermis,[2],increase
same,cholesterol level in the skin,[2],decrease
same,transepidermal loss of water,[2],increase
